Consider two molecules from US20160151347A1, “PHARMACEUTICAL COMPOUNDS” (ISIS Innovation LTD, priority 2013, published 2016).

The subject of series [1] is human patient with sinus tachycardia. In words: Case report: heart rate (ECG) of a human patient with sinus tachycardia and systemic lupus erythematosus. An excerpt:
The heart rate of a mammal is defined as the number of heart beats per unit of time, usually heart beats per minute (bpm). The heart rate or number of heart beats per unit of time can be determined using methods known in the art. Such a method may involve the simple measurement of a mammal's pulse. Alternatively, heart rate may be measured through the use of an electrocardiograph (ECG), which is readily available to those skilled in the art. Such a method involves counting the number of QRS complexes in the ECG.
The patient was a person with no previous history of cardiac related disease.
Furthermore, the glyceryl trinitrate spray was used whenever angina symptoms were experienced.
In June 2009, the patient was diagnosed with systemic lupus erythematosus.
On Aug. […] On Aug. […] On Sep.

Series [2] has as its system If current. Nature of the series: If current recordings, perforated patch voltage clamp in single isolated sinoatrial node cells. Format: cell-based, guinea pig. The note with it: for reduction in If current: 1 μM, 5 min exposure, n=7.
The test system of series [3] is isolated guinea-pig sino-atrial node cells. Nature of the series: Action potential recordings, current clamp in single isolated sino-atrial node cells. The note with it: 1 μM. The format is cell-based. As for the experimental part:
Male guinea pigs (350-500 g) were sacrificed by concussion followed by cervical dislocation. The heart was rapidly excised and encouraged to beat several times in heparin-containing zero-Ca ^2+ modified Tyrode solution to prevent clotting (10 U/mL). The heart was mounted via the aorta on a constant pressure Langendorff system for retrograde perfusion, with solutions maintained at body temperature. After 2 minutes initial wash with zero Ca ^2+ solution (in mM: NaCl 136, KCI 5.4, NaHCO3 12, Na^+ pyruvate 1, NaH2PO4 1, MgCl2 1, EGTA 0.04, glucose 5; gassed with 95% O2/5% CO2 to maintain a pH of 7.4), perfusion was switched to re-circulation with collagenase solution (same as zero Ca^2+ but with 27 mg collagenase/50 mL—type II Worthington, Worthington Biochemical Corp., Lakewood, N.J., USA—0.1 mM CaCl2 and no EGTA).
Following 25 minutes enzymatic digestion, the right atrium, vena-cavae and pulmonary artery were dissected away from the ventricles. The right atrium was pinned in a Sylgard-coated bath, opened by anterior incision, and the SA node identified from anatomical features and tissue appearance. Under a binocular microscope, the SA node appears as a translucent, smooth, white structure in contrast to the thicker, pinker surrounding atrial tissue. The SA node was dissected into thin strips 2×5 mm) and stored in a high potassium medium (in mM: KCI 70, MgCl2 5, K^+ glutamine 5, taurine 20, EGTA 0.04, succinic acid 5, KH2PO4 20, HEPES 5, glucose 10; pH to 7.2 with KOH). Isolation of single SA node myocytes was carried out by gentle trituration.
For all single cell experiments, cells were transferred to a glass coverslip and superfused with oxygenated PSS at 34 ±1° C. using a gravity-fed system running at 2-3 mL/min. HCQ was applied via superfusion, with an electronic switching mechanism resulting in full solution exchange over a period of less than 20 seconds.
Perforated patch clamp recordings were carried out using electrodes pulled from filamented borosilicate glass capillary tubing (GC100 F, Harvard Apparatus Ltd, Kent) using a two-stage vertical puller (Narishige, Japan). […]
Micropipettes were mounted in a Perspex holder containing an Ag/AgCl wire and connected to a CV203BU headstage. All recordings were carried out using an AxoPatch 200B microelectrode system, digitised with a Digidata 1200 A-D converter, and recorded using PCIamp7 software at a sampling rate of 2 kHz (All products in this paragraph, Axon Instruments). […]
Action potentials were recorded from single guinea pig SA node cells under current clamp conditions using the AxoPatch200B microelectrode system and rate measured in Hz using spectral analysis. […]

Series [4] relates to mouse atrial tissue preparations with intact sino-atrial node. Nature of the series: Spontaneous beating rate of isolated mouse atrial preparations (tension transducer). The format is cell-based. The note with it: for reduction in beating rate from control: n=7 (Example 5); for decrease in spontaneous frequency: 30 minute exposure, n=6 (Example 3). An excerpt: Male CD-1 mice (7-9 weeks of age) were terminated by concussion followed by dislocation. The chest cavity was opened and heparinised solution (10 U/mL) applied around the heart to minimise clotting during dissection. The heart was rapidly excised and placed in warm, oxygenated modified Tyrode solution (PSS, in mM: NaCl 125, NaHCO3 25, KCl 5.4, NaH2PO4 1.2, MgCl2 1, glucose 5.5, CaCl2 1.8, pH to 7.4 with NaOH and oxygenated with 95% O2/5% CO2), the ventricular tissue discarded and the sino-atrial node region cleared of any overlying tissue.
Loops of thin suture were tied to the lateral edges of each atrium by directly knotting around a small area of the tissue, taking care to avoid contact with the node itself. One loop was anchored to a hook, which also provided oxygenation to the organ bath, and the other tied to a tension transducer. The preparation was hung in an organ bath filled with PSS, maintained at 37° C. Tension data was digitised using a PowerLabs bridge amplifier and recorded on Chart5 software (all from ADlnstruments, UK). Beating rate was calculated in real-time from the upstroke of the tension signal using the Chart5 Ratemeter function.
Spontaneously-beating atrial preparations were allowed to stabilise for 20 minutes, solution was exchanged for fresh, warmed, PSS and the preparation was again allowed to stabilise for 30 minutes. Drugs were added directly to the organ bath by pipette and allowed to equilibrate for 30 minutes before rate data was sampled.
Male CD-1 mice (7-9 weeks of age) were terminated by concussion followed by dislocation.
The chest cavity was opened and heparinised solution (10 U/mL) applied around the heart to minimise clotting during dissection. The heart was rapidly excised and placed in warm, oxygenated modified Tyrode solution (PSS, in mM: NaCl 125, NaHCO3 25, KCl 5.4, NaH2PO4 1.2, MgCl2 1, glucose 5.5, CaCl2 1.8, pH to 7.4 with NaOH and oxygenated with 95% O2/5% CO2), the ventricular tissue discarded and the sino-atrial node region cleared of any overlying tissue.

The subject of series [5] is male Sprague-Dawley rats. Nature of the series: Rat in-vivo blood pressure and heart rate study (anaesthetised, carotid cannula). As for the experimental part:
Data was acquired (200 Hz) in real time using a Biopac M100 system connected to a Dell P4 computer using AcqKnowledge software. Heart rate was triggered from the arterial blood pressure signal. Intravenous access was gained via the left external jugular vein using a 3 F cannula. After an equilibration period of at least 10 minutes, hydoxychloroquine (dissolved in sterile normal saline for injection and warmed to body temperature) was given as intravenous boluses over 30 seconds (1-30 mg/kg). […] Once a stable response had been reached, measurements were taken as an average over 30 seconds. On completion of the protocol, animals were euthanised with intraperitoneal injection of pentobarbitone. […] Data was acquired (200 Hz) in real time using a Biopac M100 system connected to a Dell P4 computer using AcqKnowledge software. Heart rate was triggered from the arterial blood pressure signal. Intravenous access was gained via the left external jugular vein using a 3 F cannula. After an equilibration period of at least 10 minutes, hydoxychloroquine (dissolved in sterile normal saline for injection and warmed to body temperature) was given as intravenous boluses over 30 seconds (1-30 mg/kg). […] Once a stable response had been reached, measurements were taken as an average over 30 seconds. On completion of the protocol, animals were euthanised with intraperitoneal injection of pentobarbitone.

Series [6] relates to C57BL/6 mice. Further details: species or system mouse. The note with it: in vivo. An excerpt: Automated non-invasive tail cuff plethysmography (Visitech 2000, Visitech, USA) was used to determine systolic blood pressure in response to HCQ in drinking water when compared to a control group (n=9/group). C57BL/6 mice were habituated for 5 days and then underwent measurements alternate day for 28 days. All measurements were taken in the morning at the same time of day. Twenty measurements were taken, the first 10 discarded and an average of valid recordings then taken for analysis.
We assessed safety by performing long term feeding of mice at 100 mg/kg daily for 28 days with HCQ (FIG. 9) and measuring blood pressure by tail cuff plethysmography.

The mark [7] stands for this setting: 3 μM, 5 mins superfusion, n=4 cells.

Where only a bound is given, the exact number is not on record here.

As for `CC(C)NCC(O)COc1ccc(CC(N)=O)cc1` (centres unmarked) [atenolol], in series [1] (patient on atenolol), the side effects experienced entry was “tiredness associated with the onset of use of atenolol, low blood pressure and increased effects of Raynaud's syndrome”. Moreover, the heart rate in series [1] (patient treated with atenolol and a glyceryl trinitrate spray, about 118 bpm at rest before) is 70-80 bpm.

For the molecule `CCN(CCO)CCCC(C)Nc1ccnc2cc(Cl)ccc12` (centres unmarked) [hydroxychloroquine, 2-[{4-[(7-chloroquinolin-4-yl)amino]pentyl}(ethyl)amino]ethanol], the heart rate is listed as 80-88 bpm in series [1] (200 mg daily resumed Aug. 4, 2010, measured Sep. 16, 2010) and 70-80 bpm in series [1] (200 mg to 400 mg Plaquenil per day, Atenolol completely ceased). Also, the stable heart rate in series [1] (200 mg daily, August 2010 until December 2010) is recorded as 70-85 bpm. Besides, in series [1] (dose halved to 100 mg per day, ECG Aug. 3, 2010), the recorded heart rate worked out at 109 bpm. Further, the “reduction in If current” value in series [2] (−80 mV voltage step) is 20+/−4%; in series [2] (−100 mV step), 12+/−4%. Moreover, the “maximal conductance of I(f)” value in series [2] (setting [7]) was 85±6 % of control. In addition, the “voltage of half-activation (V50) and slope of conductance” value in series [2] (setting [7]) is listed as “unchanged”. The “reduction in cellular beating rate (action potential firing rate)” value in series [3] (3 mins of exposure, n=6) is listed as 10±3%. Further, the “lengthening in the time taken to reach 50% repolarisation” value in series [3] (5 min superfusion) is listed as 11+/-3%. Further, the “reduction in the slope of spontaneous diastolic depolarization” value in series [3] (5 min superfusion) is recorded as 25+/−3%. For the same molecule, in series [3] (5 min superfusion, n=6, listed as HCQ), the “reduction in rate of spontaneous action potential generation (cellular beating rate)” value is on record as 17±6%. For the same molecule, the “reduction in beating rate from control” value is on record as 9±3% in series [4] (3 μM cumulative dose) and 15±2% in series [4] (10 μM cumulative dose). The “decrease in spontaneous frequency” value stood at 11% in series [4] (3 μM) and 20% in series [4] (10 μM). The “cumulative dose at which a significant transient reduction in heart rate is observed” value in series [5] (cumulative intravenous doses) is reported as at least 7.5 mg/kg. Further, in series [5] (low intravenous doses (1-15 mg), n=6), the “effect on blood pressure at low doses” value was “without an effect on blood pressure”. In addition, the “effect on blood pressure at very high doses” value in series [5] (very high intravenous doses) is “an effect on blood pressure (which recovers over time)”. The “systolic blood pressure, baseline” value in series [6] (C57BL/6, mouse) stood at 109.7±2.89 mmHg. Besides, the start weight in series [6] (mouse) worked out at 27.72 ± 0.36 g.
